CLint scaled data for one compound are collected here from article PMC11397024, “Strategic Fluorination to Achieve a Potent, Selective, Metabolically Stable, and Orally Bioavailable Inhibitor of CSNK2” (Molecules, 2024).

The nature of data set [1]: Liver microsomal stability, human. The data set is classed as in vitro ADME. Particulars: pH 7.4, human liver microsomes, five time points over 1 h, read-out: HLM CLint.
Data set [2] in a line: Liver microsomal stability, mouse. Particulars: male, CD-1, pH 7.4, mouse liver microsomes, five time points over 1 h, read-out: MLM CLint. The data set is classed as in vitro ADME. On the procedure: Compounds 1 ([…] DMSO stock solutions) were diluted to 2.5 mM with DMSO and again to 0.5 mM with MeCN to give a final solution containing a 0.5 mM compound in 1:4 DMSO/MeCN. Liver microsomes from male CD-1 mice were sourced from Xenotech (Kansas City, KS, USA). A reaction plate was prepared by adding 691.25 μL and prewarmed (37 °C) microsomal solution (0.63 mg/mL protein and 1.3 mM EDTA in potassium phosphate buffer made by mixing ~250 mL of 100 mM K2HPO4 with ~65mL of KH2PO4 until the buffer reaches a pH of 7.4) to an empty well of a 96-well plate and maintained at 37 °C. […] The stability of the compound was calculated as the percentage of the unchanged parent remaining at T = 30 min relative to the peak area at T = 0 min.
To determine CLint, aliquots of 50 μL were taken from the reaction solution at 0, 15, 30, 45, and 60 min. […] Peak areas were determined from extracted ion chromatograms and the slope value, k, was determined by linear regression of the natural logarithm of the remaining percentage of the parent drug vs. incubation time curve. The intrinsic clearance (CLint in μL/min/mg) was calculated using the relationship CLint = kV/N where V is the incubation volume and N is the amount of protein per well.

`CCC(=O)Nc1cc(Nc2cc(NC3CC3)n3ncc(C#N)c3n2)c(F)cc1N1CCC[C@H](NC)C1` [Compound 2, (S)-N-(5-((3-cyano-7-(cyclopropylamino)pyrazolo[1,5-a]pyrimidin-5-yl)amino)-4-fluoro-2-(3-(methylamino)piperidin-1-yl)phenyl)propionamide]: the CLint scaled at 5 μM worked out at 12.9 mL/min/kg in data set [1] and 48.5 mL/min/kg in data set [2].
